Laboratory results reported in patent publication US8388990B2, “Acidified chlorite compositions containing nitrogenous stabilizers and systems and methods related thereto” (Ecolab USA Inc., priority 2002, dated 2013).
Where two headings read alike, the source gives them in different places. One block for each molecule: values may come before it.

Legend:
[1] = Colorant effect on chlorite consumption (Example 2); type: physicochemical; conditions: disinfecting composition A of Example 1 with essentially equimolar colorant: 0.41% Blue #1, 0.26% Blue #2, 0.30% Yellow #5, 0.25% Yellow #6, 0.28% Red #40
Protocol: To determine how increasing levels of colorant causes a more rapid consumption of chlorite, the disinfecting composition A of Example 1 was prepared with either 0% (control), 0.03%, 0.15%, 0.30% or 0.60% by weight FD&C Yellow #5.
This experiment was then repeated using essentially equimolar concentrations of the following FD&C colorants: 0.41% Blue #1, 0.26% Blue #2, 0.30% Yellow #5, 0.25% Yellow #6, 0.28% Red #40 and no colorant (control).

[2] = for Percent of Initial NaClO2 Remaining 2 Hours after Mixing / Percent of Initial NaClO2 Remaining 5 Hours after Mixing: buffer
[3] = Chlorine dioxide generation by UV/Visible spectrophotometry at 360 nm (Example 6); type: physicochemical; conditions: pH 2.5, no colorant
[4] = Assay for measuring the Reduced Chlorite Demand Factor (Example 9); type: physicochemical; conditions: pH 2.5
[5] = buffer, pH 2.5
[6] = Effect of nitrogenous stabilizer on chlorite consumption in a nil colorant composition (Example 7); type: physicochemical
[7] = composition with FD&C Yellow #5, pH 2.5, versus control
[8] = level (Wt %): ethylenediamine 1.0, monoethanolamine 2.0, glycine 2.5
[9] = stabilizer at 1.33 M, five hours after mixing, versus control without stabilizer

- effect on rate of sodium chlorite consumption / chlorite longevity (in words) [2, 7]: solid chlorite longevity benefits
Molecule: NCCS(=O)(=O)O [Taurine]

- Level of ClO2 after 1 hour [3, 8]: 105 ppm
- Reduced Chlorite Demand Factor [4, 9]: 3.8
- Percent of Initial NaClO2 Remaining 2 Hours after Mixing ([2]; pH 2.5): 78%
- Percent of Initial NaClO2 Remaining 5 Hours after Mixing ([2]; pH 2.5): 42%
- Percent of Initial Colorant Remaining 2 Hours after Mixing [5]: 61%
Molecule: NCC(=O)O [Glycine]

- Reduced Chlorite Demand Factor ([4]; tested at 0.5% due to lower solubility, five hours after mixing): 5.6
- effect on rate of sodium chlorite consumption / chlorite longevity (in words) [2, 7]: promote greater chlorite longevity
Molecule: Nc1ccc(S(N)(=O)=O)cc1 [Sulfanilamide]

- Reduced Chlorite Demand Factor [4, 9]: 4.3
- effect on rate of sodium chlorite consumption / chlorite longevity (in words) [2, 7]: provides longevity benefits
Molecule: NC(N)=O [Urea]

- effect on rate of sodium chlorite consumption / chlorite longevity (in words) [2, 7]: particularly effective
Molecule: CNS(=O)(=O)O [Methylsulfamic Acid]

- Level of ClO2 after 1 hour [3, 8]: 66 ppm
- Reduced Chlorite Demand Factor [4, 9]: 4.1
- Percent of Initial NaClO2 Remaining 2 Hours after Mixing ([2]; pH 2.5): 86%
- Percent of Initial NaClO2 Remaining 5 Hours after Mixing ([2]; pH 2.5): 45%
- Percent of Initial Colorant Remaining 2 Hours after Mixing [5]: 49%
Molecule: NCCO [Monoethanolamine]

Continued, molecule first:

Molecule: O=C1/C(=C2\Nc3ccc(S(=O)(=O)[O-])cc3C2=O)Nc2ccc(S(=O)(=O)[O-])cc21.[Na+].[Na+] [FD&C Blue #2]
- Percent of Initial NaClO2 Remaining 5 Hours after Mixing [1]: 43%

Molecule: COc1cc(S(=O)(=O)[O-])c(C)cc1N=Nc1c(O)ccc2cc(S(=O)(=O)[O-])ccc12.[Na+].[Na+] [FD&C Red #40]
- Percent of Initial NaClO2 Remaining 5 Hours after Mixing [1]: 60%

Molecule: Nc1ccccc1 [Aniline]
- effect on rate of sodium chlorite consumption / chlorite longevity (in words) [2, 7]: promote greater chlorite longevity

Molecule: Aniline Sulfonic Acid
- Percent of Initial NaClO2 After 2 Hours ([2]; pH 2.5): 90%
- Percent of Initial NaClO2 After 5 hours ([2]; pH 2.5): 75%
- effect on rate of sodium chlorite consumption / chlorite longevity (in words) ([2]; pH 2.5): promote greater chlorite longevity

Molecule: NCS(=O)(=O)O [Aminomethanesulfonic Acid]
- effect on rate of sodium chlorite consumption / chlorite longevity (in words) [2, 7]: solid chlorite longevity benefits

Molecule: O=C([O-])C1=NN(c2ccc(S(=O)(=O)[O-])cc2)C(=O)C1N=Nc1ccc(S(=O)(=O)[O-])cc1.[Na+].[Na+].[Na+] (stereo not shown) [FD&C Yellow #5]
- Percent of Initial NaClO2 Remaining 5 Hours after Mixing [1]: 27%

Molecule: NS(=O)(=O)O [Sulfamic Acid]
- Percent of Initial NaClO2 After 2 Hours ([6]; stabilizer level 0.25 Wt %): 97%
- Percent of Initial NaClO2 After 5 hours ([6]; stabilizer level 0.25 Wt %): 94%
- Percent of Initial NaClO2 After 2 Hours ([6]; stabilizer level 0.50 Wt %): 97%
- Percent of Initial NaClO2 After 5 hours ([6]; stabilizer level 0.50 Wt %): 94%
- Level of ClO2 after 1 hour ([3]; stabilizer level 0.25 Wt %): 17 ppm
- Level of ClO2 after 1 hour ([3]; stabilizer level 0.50 Wt %): 17 ppm
- Reduced Chlorite Demand Factor [4]: 4.5
- Percent of Initial NaClO2 Remaining 2 Hours after Mixing ([2]; pH 2.5): 98%
- Percent of Initial NaClO2 Remaining 5 Hours after Mixing ([2]; pH 2.5): 95%
- effect on rate of sodium chlorite consumption / chlorite longevity (in words) ([2]; pH 2.5): significantly impact the rate of sodium chlorite consumption
- Percent of Initial Colorant Remaining 2 Hours after Mixing [5]: 97%

Molecule: NCCN [Ethylenediamine]
- Level of ClO2 after 1 hour [3, 8]: 35 ppm
- Reduced Chlorite Demand Factor [4, 9]: 4.0
- Percent of Initial NaClO2 Remaining 2 Hours after Mixing ([2]; pH 2.5): 92%
- Percent of Initial NaClO2 Remaining 5 Hours after Mixing ([2]; pH 2.5): 80%
- Percent of Initial Colorant Remaining 2 Hours after Mixing [5]: 91%

Molecule: O=S(=O)([O-])c1ccc(N=Nc2c(O)ccc3cc(S(=O)(=O)[O-])ccc23)cc1.[Na+].[Na+] [FD&C Yellow #6]
- Percent of Initial NaClO2 Remaining 5 Hours after Mixing [1]: 18%

Molecule: CCN(Cc1cccc(S(=O)(=O)[O-])c1)c1ccc(C(=C2C=CC(=[N+](CC)Cc3cccc(S(=O)(=O)[O-])c3)C=C2)c2ccccc2S(=O)(=O)[O-])cc1.[Na+].[Na+] [FD&C Blue #1]
- Percent of Initial NaClO2 Remaining 5 Hours after Mixing [1]: <2%

Molecule: OCCNCCO [Diethanolamine]
- Reduced Chlorite Demand Factor [4, 9]: 0.9
